This passage reports TGI and GI50 results from PubChem BioAssay (NCI).

Each structure is given as a SMILES string.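 96-well plates; 48 h exposure; 5 concentrations. Endpoints by linear interpolation between flanking doses. Not reached: highest tested concentration assigned. The concentration for 50% growth inhibition is given as GI50. TGI: total growth inhibition.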 Some results are limits rather than exact numbers.

The first assay concerns OVCAR-3 ovarian. Kind of assay: DTP human tumour cell line panel, 48 h.
Turning to `O=C(Cc1nc2ccc(C(=O)c3ccccc3)cc2[nH]c1=O)C(=O)Nc1ccc(Br)cc1`, the total growth inhibition concentration (TGI) is more than 100 µM.

With `Cc1c(/C=N\NC(=S)N2CCN(C(=S)N/N=C\c3c(C)n(C)n(-c4ccccc4)c3=O)CC2)c(=O)n(-c2ccccc2)n1C`, the TGI is more than 100 µM.

`Cc1cc2c(c(C(=O)NCCC(=O)O)c1)Oc1c(cc(C)cc1C(=O)NCCC(=O)O)S2` registered a TGI of more than 100 µM.

For another assay, the system named is SF-268 CNS. The experiment in a line: DTP human tumour cell line panel, 48 h.
`Cc1cn(C2CC(N)C(CN)O2)c(=O)[nH]c1=O` (configuration not stated) registered a TGI of more than 100 µM.

Compound `COc1ccc2c(c1)c1c(n2CCN2CCOCC2)-c2ccccc2CC1` yielded a total growth inhibition concentration (TGI) of more than 100 µM.

In the case of `CCCCCCCCCC[C@@H](O)[C@H]1CC[C@H]([C@H]2CC[C@H]([C@H](O)CCCCCCCCCC[C@@H]3CC(CC(C)=O)C(=O)O3)O2)O1` (some centres not stated), the GI50 is 4.95 µM and the total growth inhibition concentration (TGI) is more than 50 µM.

The compound `CC(C)(C)C(=O)C(CC(=O)c1ccccc1)C(=O)C(C)(C)C` showed a TGI of more than 100 µM.

For `Cc1cn(C2C=CC(COP(=O)(OCC3=CC(=O)c4ccccc4C3=O)N(C)CCCCCl)O2)c(=O)[nH]c1=O` (configuration not stated), the TGI came out at 24.4 µM.

`Clc1nc(Cl)nc(NC23CC4CC(CC(C4)C2)C3)n1` came in with a TGI of 38.2 µM.

As for `CCOC(=O)c1cc2c([N+](=O)[O-])c(NC(C)=O)ccc2s1`, the total growth inhibition concentration (TGI) was more than 100 µM.

Compound `COc1cc2oc(-c3ccc(O)cc3)c(OC3OC(C)C(O)C(O)C3O)c(=O)c2c(O)c1OC` (configuration not stated) displayed a TGI of more than 100 µM.

In turn, `COC(=O)C1(Cc2ccccc2)Cc2cc3c(cc2C1=O)CCC3` (configuration not stated) returned a TGI of more than 100 µM.

Consider `COc1ccc(N2C(=O)C3c4[nH]c5ccc([N+](=O)[O-])cc5c4C4CCC(C(C)(C)C)CC4C3C2=O)cc1` (configuration not stated), for which the total growth inhibition concentration (TGI) is more than 100 µM.

Take `COC(=O)C1=C(C(=O)OC)C2OC1C1C2C2(C)C(C)=C(C)C1(C)S2=O` (configuration not stated): the concentration for total growth inhibition (TGI) worked out at 28.9 µM.

As for `O=C(O)c1ccc(NC(c2ccccc2)c2ccc3cccnc3c2O)cc1` (configuration not stated), the total growth inhibition concentration (TGI) was more than 100 µM.

As to `O=c1[nH]c2nc3ccccc3c(=O)n2/c1=C/c1ccc(O)cc1`, the TGI is more than 100 µM.

Take `CC[C@@H]1CC[C@@H]2[C@H](CC[C@]3(C)[C@@H](O)CC[C@@H]23)[C@H]1C(=O)O`: the total growth inhibition concentration (TGI) was more than 100 µM.

For the compound `Nc1nc(Cl)cc(NCC2(CO)CC(CCc3ccccc3)C2)n1` (configuration not stated), the concentration for total growth inhibition (TGI) is more than 100 µM.

Turning to `O=c1c2ccccc2[nH]c(=S)n1-c1ccc(N=Nc2cccc3c(O)cccc23)cc1`, the TGI was more than 100 µM.

`c1cc2nnc1SCCSCCSc1ccc(nn1)SCCSCCS2` registered a TGI of more than 100 µM.

Turning to `COc1ccc(-c2c(C#N)c(S)n(C3OC(COC(C)=O)C(OC(C)=O)C(OC(C)=O)C3OC(C)=O)c(=O)c2C#N)cc1` (configuration not stated), the TGI is more than 100 µM.

Turning to `C[C@]12OC[C@H](c3ccccc3)N1C(=O)C1[C@H]2CC12SCCS2` (some centres not stated), the TGI is more than 100 µM.

The compound `O=C(Cc1nc2ccc(C(=O)c3ccccc3)cc2[nH]c1=O)C(=O)Nc1ccc(Br)cc1` returned a TGI of more than 100 µM.

Compound `Cc1c(/C=N\NC(=S)N2CCN(C(=S)N/N=C\c3c(C)n(C)n(-c4ccccc4)c3=O)CC2)c(=O)n(-c2ccccc2)n1C` displayed a TGI of more than 100 µM.

`Cc1cc2c(c(C(=O)NCCC(=O)O)c1)Oc1c(cc(C)cc1C(=O)NCCC(=O)O)S2`: the total growth inhibition concentration (TGI) was more than 100 µM.

The next assay relates to SF-539 CNS. Kind of assay: DTP human tumour cell line panel, 48 h.
`Cc1cn(C2CC(N)C(CN)O2)c(=O)[nH]c1=O` (configuration not stated) yielded a TGI of more than 100 µM.

In the case of `COc1ccc2c(c1)c1c(n2CCN2CCOCC2)-c2ccccc2CC1`, the TGI is 71.3 µM.

Turning to `CCCCCCCCCC[C@@H](O)[C@H]1CC[C@H]([C@H]2CC[C@H]([C@H](O)CCCCCCCCCC[C@@H]3CC(CC(C)=O)C(=O)O3)O2)O1` (some centres not stated), the concentration for total growth inhibition (TGI) is more than 50 µM.

`CC(C)(C)C(=O)C(CC(=O)c1ccccc1)C(=O)C(C)(C)C` had a TGI of more than 100 µM.

On to `Cc1cn(C2C=CC(COP(=O)(OCC3=CC(=O)c4ccccc4C3=O)N(C)CCCCCl)O2)c(=O)[nH]c1=O` (configuration not stated), for which the concentration for total growth inhibition (TGI) came to 25.8 µM.

In turn, `Clc1nc(Cl)nc(NC23CC4CC(CC(C4)C2)C3)n1` displayed a TGI of 35 µM.

`CCOC(=O)c1cc2c([N+](=O)[O-])c(NC(C)=O)ccc2s1` had a TGI of more than 100 µM.

Take `COc1cc2oc(-c3ccc(O)cc3)c(OC3OC(C)C(O)C(O)C3O)c(=O)c2c(O)c1OC` (configuration not stated): the concentration for total growth inhibition (TGI) was more than 100 µM.

The compound `COC(=O)C1(Cc2ccccc2)Cc2cc3c(cc2C1=O)CCC3` (configuration not stated) displayed a TGI of more than 100 µM.

For `COc1ccc(N2C(=O)C3c4[nH]c5ccc([N+](=O)[O-])cc5c4C4CCC(C(C)(C)C)CC4C3C2=O)cc1` (configuration not stated), the concentration for total growth inhibition (TGI) was more than 100 µM.

On to `COC(=O)C1=C(C(=O)OC)C2OC1C1C2C2(C)C(C)=C(C)C1(C)S2=O` (configuration not stated), for which the concentration for total growth inhibition (TGI) is more than 100 µM.

As to `O=C(O)c1ccc(NC(c2ccccc2)c2ccc3cccnc3c2O)cc1` (configuration not stated), the TGI is 25.9 µM.

As to `O=c1[nH]c2nc3ccccc3c(=O)n2/c1=C/c1ccc(O)cc1`, the TGI was found to be 46.6 µM.

Compound `CC[C@@H]1CC[C@@H]2[C@H](CC[C@]3(C)[C@@H](O)CC[C@@H]23)[C@H]1C(=O)O` showed a TGI of more than 100 µM.

In the case of `Nc1nc(Cl)cc(NCC2(CO)CC(CCc3ccccc3)C2)n1` (configuration not stated), the TGI was more than 100 µM.

Turning to `O=c1c2ccccc2[nH]c(=S)n1-c1ccc(N=Nc2cccc3c(O)cccc23)cc1`, the TGI is more than 100 µM.

In turn, `c1cc2nnc1SCCSCCSc1ccc(nn1)SCCSCCS2` showed a concentration for total growth inhibition (TGI) of 96.8 µM.

On to `COc1ccc(-c2c(C#N)c(S)n(C3OC(COC(C)=O)C(OC(C)=O)C(OC(C)=O)C3OC(C)=O)c(=O)c2C#N)cc1` (configuration not stated), for which the concentration for total growth inhibition (TGI) was more than 100 µM.

As to `C[C@]12OC[C@H](c3ccccc3)N1C(=O)C1[C@H]2CC12SCCS2` (some centres not stated), the concentration for total growth inhibition (TGI) is more than 100 µM.

Take `O=C(Cc1nc2ccc(C(=O)c3ccccc3)cc2[nH]c1=O)C(=O)Nc1ccc(Br)cc1`: the TGI is more than 100 µM.

The compound `Cc1c(/C=N\NC(=S)N2CCN(C(=S)N/N=C\c3c(C)n(C)n(-c4ccccc4)c3=O)CC2)c(=O)n(-c2ccccc2)n1C` yielded a total growth inhibition concentration (TGI) of more than 100 µM.

Turning to `Cc1cc2c(c(C(=O)NCCC(=O)O)c1)Oc1c(cc(C)cc1C(=O)NCCC(=O)O)S2`, the TGI is more than 100 µM.

The next assay concerns SN12C renal. The experiment in a line: DTP human tumour cell line panel, 48 h.
Take `Cc1cn(C2CC(N)C(CN)O2)c(=O)[nH]c1=O` (configuration not stated): the TGI was more than 100 µM.

In turn, `COc1ccc2c(c1)c1c(n2CCN2CCOCC2)-c2ccccc2CC1` came in with a total growth inhibition concentration (TGI) of 69.8 µM.

The compound `CCCCCCCCCC[C@@H](O)[C@H]1CC[C@H]([C@H]2CC[C@H]([C@H](O)CCCCCCCCCC[C@@H]3CC(CC(C)=O)C(=O)O3)O2)O1` (some centres not stated) displayed a TGI of more than 50 µM.

`CC(C)(C)C(=O)C(CC(=O)c1ccccc1)C(=O)C(C)(C)C` gave a total growth inhibition concentration (TGI) of more than 100 µM.

For `Cc1cn(C2C=CC(COP(=O)(OCC3=CC(=O)c4ccccc4C3=O)N(C)CCCCCl)O2)c(=O)[nH]c1=O` (configuration not stated), the total growth inhibition concentration (TGI) stood at 23.9 µM.

For the compound `Clc1nc(Cl)nc(NC23CC4CC(CC(C4)C2)C3)n1`, the TGI was 35.2 µM.

As for `CCOC(=O)c1cc2c([N+](=O)[O-])c(NC(C)=O)ccc2s1`, the TGI was more than 100 µM.

For `COc1cc2oc(-c3ccc(O)cc3)c(OC3OC(C)C(O)C(O)C3O)c(=O)c2c(O)c1OC` (configuration not stated), the concentration for total growth inhibition (TGI) was more than 100 µM.

Compound `COC(=O)C1(Cc2ccccc2)Cc2cc3c(cc2C1=O)CCC3` (configuration not stated) registered a TGI of more than 100 µM.

`COc1ccc(N2C(=O)C3c4[nH]c5ccc([N+](=O)[O-])cc5c4C4CCC(C(C)(C)C)CC4C3C2=O)cc1` (configuration not stated) registered a total growth inhibition concentration (TGI) of 76.9 µM.

Consider `COC(=O)C1=C(C(=O)OC)C2OC1C1C2C2(C)C(C)=C(C)C1(C)S2=O` (configuration not stated), for which the TGI amounted to 31.1 µM.

Compound `O=C(O)c1ccc(NC(c2ccccc2)c2ccc3cccnc3c2O)cc1` (configuration not stated) came in with a concentration for total growth inhibition (TGI) of more than 54.1 µM.

In turn, `O=c1[nH]c2nc3ccccc3c(=O)n2/c1=C/c1ccc(O)cc1` yielded a TGI of more than 100 µM.

As to `CC[C@@H]1CC[C@@H]2[C@H](CC[C@]3(C)[C@@H](O)CC[C@@H]23)[C@H]1C(=O)O`, the total growth inhibition concentration (TGI) was more than 100 µM.

`Nc1nc(Cl)cc(NCC2(CO)CC(CCc3ccccc3)C2)n1` (configuration not stated): the TGI is more than 100 µM.

As to `O=c1c2ccccc2[nH]c(=S)n1-c1ccc(N=Nc2cccc3c(O)cccc23)cc1`, the concentration for total growth inhibition (TGI) was more than 100 µM.

Take `c1cc2nnc1SCCSCCSc1ccc(nn1)SCCSCCS2`: the TGI is more than 100 µM.

`COc1ccc(-c2c(C#N)c(S)n(C3OC(COC(C)=O)C(OC(C)=O)C(OC(C)=O)C3OC(C)=O)c(=O)c2C#N)cc1` (configuration not stated) displayed a TGI of more than 100 µM.

For `C[C@]12OC[C@H](c3ccccc3)N1C(=O)C1[C@H]2CC12SCCS2` (some centres not stated), the total growth inhibition concentration (TGI) is more than 100 µM.

As usually defined, the TGI is the concentration at which net growth stops. A higher TGI goes with lower sensitivity of the cells. By GI50 is commonly meant the concentration giving 50% growth inhibition.
